Where two headings read alike, the source gives them in different places.
Columns and labels:
SARS-CoV-2 = test: microbe, parasite or virus in culture; type: cell-based; conditions: Severe acute respiratory syndrome coronavirus 2, VeroE6/TMPRSS2, 72 h, 50% SARS-CoV-2 infected cell death inhibitory concentration, VeroE6/TMPRSS2 cells, 3 days culture
SARS-CoV-2 3CL protease = SARS-CoV-2 3CL protease (Severe acute respiratory syndrome coronavirus 2, UniProt P0DTD1); test: biochemical; conditions: 50% SARS-CoV-2 3CL protease inhibitory concentration, read-out: IC50

| SMILES | EC50 (SARS-CoV-2; class symbols) | IC50 (SARS-CoV-2 3CL protease; given as class symbols) | EC50 (SARS-CoV-2; CellTiter-Glo 2.0) | IC50 (SARS-CoV-2 3CL protease; RapidFire MS) |
| --- | --- | --- | --- | --- |
| N#CC1(Cn2cc3cc(Nc4nc(=O)n(Cc5ccc[nH]c5=O)c(=O)n4Cc4cc(F)c(F)c(F)c4)c(Cl)cc3n2)CC1 [II-0412] | 1000 to 10000 nM | < 100 nM |  |  |
| CC(C)Nc1nc2cc(Cl)c(Nc3nc(=O)n(Cc4ccc[nH]c4=O)c(=O)n3Cc3cc(F)c(F)c(F)c3)cc2s1 [II-0413] | 1000 to 10000 nM | < 100 nM |  |  |
| CNc1nc2cc(Cl)c(Nc3nc(=O)n(-c4cncc(C)c4)c(=O)n3Cc3ccc(F)c(C#N)c3)cc2n1C [II-0414] | 1000 to 10000 nM | < 100 nM |  |  |
| N#Cc1cc(Cn2c(Nc3ccc4nn(CC(F)F)cc4c3)nc(=O)n(-c3cncc(Cl)c3)c2=O)ccc1F [II-0415] |  |  | 870 nM | 15 nM |
| Cc1cncc(-n2c(=O)nc(Nc3cc4sc(C)nc4cc3F)n(Cc3ccc(F)c(C#N)c3)c2=O)c1 [II-0416] | 1000 to 10000 nM | < 100 nM |  |  |
| Cc1nc2cc(Br)c(Nc3nc(=O)n(Cc4ncn(C)n4)c(=O)n3Cc3cc(F)c(F)cc3F)cc2s1 [II-0417] | 1000 to 10000 nM | < 100 nM |  |  |
| COc1nc2cc(Cl)c(Nc3nc(=O)n(Cc4ccc[nH]c4=O)c(=O)n3Cc3cc(F)c(F)c(F)c3)cc2s1 [II-0418] |  |  | 6240 nM | 110 nM |
| CNc1nc2cc(F)c(Nc3nc(=O)n(-c4cncc(C)c4)c(=O)n3Cc3cc(C#N)ccc3C)cc2s1 [II-0419] | < 1000 nM | < 100 nM |  |  |
| CNc1nc2ccc(Nc3nc(=O)n(-c4cncc(C)c4)c(=O)n3Cc3cc(C#N)c(F)cc3C)cc2s1 [II-0420] | < 1000 nM | < 100 nM |  |  |
| CNc1nc2ccc(Nc3nc(=O)n(-c4cncc(C)c4)c(=O)n3Cc3cc(C#N)c(F)cc3Cl)cc2s1 [II-0421] | < 1000 nM | < 100 nM |  |  |
| Cc1cncc(-n2c(=O)nc(Nc3ccc4nn(C)cc4c3)n(Cc3cc(C#N)ccc3Cl)c2=O)c1 [II-0422] |  |  | 290 nM | 6.4 nM |
| Cc1cncc(-n2c(=O)nc(Nc3cc4sc(NCC(F)F)nc4cc3F)n(Cc3cc(F)c(F)c(C#N)c3)c2=O)c1 [II-0423] | 1000 to 10000 nM | < 100 nM |  |  |
| Cc1cncc(-n2c(=O)nc(Nc3cc4sc(NCC(F)F)nc4cc3F)n(Cc3ccc(F)c(C#N)c3)c2=O)c1 [II-0424] | 1000 to 10000 nM | < 100 nM |  |  |
| Cc1cnc(Cn2c(=O)nc(Nc3cc4cn(C)nc4cc3Cl)n(Cc3cc(F)c(F)cc3F)c2=O)nc1 [II-0425] |  |  | 5850 nM | 260 nM |
| Cc1cncc(-n2c(=O)nc(Nc3cc4cn(C)nc4cc3Cl)n(Cc3cc(Cl)ccc3C#N)c2=O)c1 [II-0426] | < 1000 nM | < 100 nM |  |  |
| Cn1cnc(Cn2c(=O)cc(Nc3cc4cn(CC(F)F)nc4cc3Cl)n(Cc3cc(F)c(F)c(F)c3)c2=O)n1 [II-0429] | 1000 to 10000 nM | < 100 nM |  |  |
| Cn1cnc(Cn2c(=O)cc(Nc3cc4cn(C)nc4cc3Cl)n(Cc3cc(F)c(F)c(F)c3)c2=O)n1 [II-0430] | 1000 to 10000 nM | < 100 nM |  |  |
| Cn1cnc(Cn2c(=O)cc(Nc3cc4cn(C(F)F)nc4cc3Cl)n(Cc3cc(F)c(F)c(F)c3)c2=O)n1 [II-0431] | < 1000 nM | < 100 nM |  |  |
| Cn1cnc(Cn2c(=O)cc(Nc3cc4cn(C(F)F)nc4cc3Cl)n(Cc3ccc(F)c(C#N)c3)c2=O)n1 [II-0433] | < 1000 nM | < 100 nM |  |  |
| Cc1cncc(-n2c(=O)nc(Nc3cc4cn(C)nc4cc3Cl)n(Cc3cc(C#N)c(F)cc3Cc3cccc(Cl)c3)c2=O)c1 [II-0434] | < 1000 nM | < 100 nM |  |  |
| Cc1cncc(-n2c(=O)nc(Nc3cc4cn(C)nc4cc3Cl)n(Cc3cc(F)c(F)cc3OCC(F)(F)F)c2=O)c1 [II-0435] | 1000 to 10000 nM | < 100 nM |  |  |
| Cc1cncc(-n2c(=O)nc(Nc3cc4c(C)n(C)nc4cc3Cl)n(Cc3ccc(F)c(C#N)c3)c2=O)c1 [II-0436] | < 1000 nM | < 100 nM |  |  |
| Cc1c2cc(Nc3nc(=O)n(Cc4ncn(C)n4)c(=O)n3Cc3cc(Cl)c(F)cc3F)c(Cl)cc2nn1C [II-0437] | < 1000 nM | < 100 nM |  |  |
| Cc1c2cc(Nc3nc(=O)n(Cc4ncn(C)n4)c(=O)n3Cc3cc(F)c(F)c(Cl)c3)c(Cl)cc2nn1C [II-0438] | 1000 to 10000 nM | < 100 nM |  |  |
| Cc1cncc(-n2c(=O)nc(Nc3cc4cn(CC(F)F)nc4cc3F)n(Cc3ccc(F)c(C#N)c3)c2=O)c1 [II-0439] | < 1000 nM | < 100 nM |  |  |

| SMILES | EC50 (SARS-CoV-2; class symbols) | IC50 (SARS-CoV-2 3CL protease; given as class symbols) | EC50 (SARS-CoV-2; CellTiter-Glo 2.0) | IC50 (SARS-CoV-2 3CL protease; RapidFire MS) |
| --- | --- | --- | --- | --- |
| CNC(=O)Cn1cc2cc(Nc3nc(=O)n(-c4cncc(C)c4)c(=O)n3Cc3cc(F)c(F)c(F)c3)c(Cl)cc2n1 [II-0440] | 1000 to 10000 nM | < 100 nM |  |  |
| Cc1cncc(-n2c(=O)nc(Nc3cc4cn(C)nc4cc3Cl)n(Cc3ccc(F)c(Cl)c3)c2=O)c1 [II-0442] | < 1000 nM | < 100 nM |  |  |
| Cn1cnc(Cn2c(=O)nc(Nc3cc4c(C5CC5)n(C)nc4cc3Cl)n(Cc3cc(F)c(F)cc3F)c2=O)n1 [II-0446] | 1000 to 10000 nM | < 100 nM |  |  |
| Cn1cnc(Cn2c(=O)nc(Nc3cc4cn(C)nc4cc3Br)n(Cc3cc(F)c(F)c(F)c3)c2=O)n1 [II-0448] | < 1000 nM | < 100 nM |  |  |
| Cc1cncc(-n2c(=O)nc(Nc3cc4c(C)n(C)nc4cc3Cl)n(Cc3cc(F)c(F)c(F)c3)c2=O)c1 [II-0449] | < 1000 nM | < 100 nM |  |  |
| Cc1c2cc(Nc3nc(=O)n(Cc4ncn(C)n4)c(=O)n3Cc3cc(F)c(F)cc3F)c(Cl)cc2nn1C [II-0450] | 1000 to 10000 nM | < 100 nM |  |  |
| Cc1c2cc(Nc3nc(=O)n(Cc4ncn(C)n4)c(=O)n3Cc3cc(F)c(F)c(F)c3)c(Cl)cc2nn1C [II-0452] | 1000 to 10000 nM | < 100 nM |  |  |
| Cn1cnc(Cn2c(=O)nc(Nc3cc4c(N5CCCC5)n(C)nc4cc3Cl)n(Cc3cc(F)c(F)c(F)c3)c2=O)n1 [II-0453] | 1000 to 10000 nM | < 100 nM |  |  |
| COc1c2cc(Nc3nc(=O)n(Cc4ncn(C)n4)c(=O)n3Cc3cc(F)c(F)cc3F)c(Cl)cc2nn1C [II-0454] | 1000 to 10000 nM | < 100 nM |  |  |
| Cn1cnc(Cn2c(=O)nc(Nc3cc4c(F)n(C)nc4cc3Cl)n(Cc3cc(F)c(F)cc3F)c2=O)n1 [II-0455] |  |  | 750 nM | 19 nM |
| Cc1cncc(-n2c(=O)nc(Nc3c(Cl)cc4nn(C)cc4c3F)n(Cc3ccc(F)c(C#N)c3)c2=O)c1 [II-0458] | < 1000 nM | < 100 nM |  |  |
| Cn1cnc(Cn2c(=O)nc(Nc3cc4cn(CC(F)F)nc4cc3F)n(Cc3cc(Cl)c(F)cc3F)c2=O)n1 [II-0459] | 1000 to 10000 nM | < 100 nM |  |  |
| O=c1[nH]cccc1Cn1c(=O)nc(NC23CC(Nc4ncc(F)cn4)(C2)C3)n(Cc2cc(F)c(F)c(F)c2)c1=O [II-0460] |  |  | 19000 nM | 22 nM |
| Cn1cnc(Cn2c(=O)nc(Nc3cc4c(-n5cccn5)n(C)nc4cc3Cl)n(Cc3cc(F)c(F)cc3F)c2=O)n1 [II-0461] | 1000 to 10000 nM | < 100 nM |  |  |
| Cn1nc2cc(Cl)c(Nc3nc(=O)n(-c4cncc5ccccc45)c(=O)n3Cc3cc(F)c(F)c(F)c3)cc2c1F [II-0462] | < 1000 nM | < 100 nM |  |  |
| Cc1cncc(-n2c(=O)nc(Nc3cc4cccnc4cc3Cl)n(Cc3ccc(F)c(C#N)c3)c2=O)c1 [II-0463] | < 1000 nM | < 100 nM |  |  |
| Cc1cncc(-n2c(=O)nc(Nc3cc4c(F)n(C)nc4cc3Cl)n(Cc3cc(F)c(F)c(F)c3)c2=O)c1 [II-0464] | < 1000 nM | < 100 nM |  |  |
| Cn1cnc(Cn2c(=O)nc(Nc3cc4cn(CC(F)F)nc4cc3F)n(Cc3cc(F)c(F)c(Cl)c3)c2=O)n1 [II-0466] | 1000 to 10000 nM | < 100 nM |  |  |
| Cn1cnc(Cn2c(=O)nc(Nc3cc4c(C(F)(F)F)n(C)nc4cc3Cl)n(Cc3cc(F)c(F)cc3F)c2=O)n1 [II-0468] | 1000 to 10000 nM | < 100 nM |  |  |
| Cc1cncc(-n2c(=O)nc(Nc3ccc4nn(C)cc4c3)n(Cc3ccc(F)c(Cl)c3)c2=O)c1 [II-0469] | < 1000 nM | < 100 nM |  |  |
| Cn1cc2cc(Nc3nc(=O)n(-c4cncc(Cl)c4)c(=O)n3Cc3cc(F)c(F)cc3F)c(F)cc2n1 [II-0475] | 1000 to 10000 nM | < 100 nM |  |  |
| Cc1cncc(-n2c(=O)nc(Nc3cc4ccnn4cc3Cl)n(Cc3ccc(F)c(C#N)c3)c2=O)c1 [II-0477] | 1000 to 10000 nM | < 100 nM |  |  |
| Cc1cncc(-n2c(=O)nc(Nc3cc4c(cc3Cl)nc(N(C)C)n4C)n(Cc3cc(F)c(F)c(F)c3)c2=O)c1 [II-0478] | 1000 to 10000 nM | < 100 nM |  |  |
| COc1cc(Cl)c(Nc2nc(=O)n(-c3cncc(C)c3)c(=O)n2Cc2ccc(F)c(C#N)c2)cn1 [II-0479] | 1000 to 10000 nM | < 100 nM |  |  |
| CC(C)(Nc1nc(=O)n(Cc2ccc[nH]c2=O)c(=O)n1Cc1cc(F)c(F)c(F)c1)c1ccccc1F [II-0482] |  |  | 44500 nM | 410 nM |

Reference: patent publication US12559474B2, “Triazine derivatives having virus replication inhibitory activity and pharmaceutical composition comprising the same” (priority 2021, dated 2026)
